In patent publication US9399646B2 (Genentech, Inc., priority 2010, dated 2016):

What was measured:
MCF-7 cells = test: Breast cancer cell viability assay (CellTiter-Glo, 5 days); assay type: cell-based; conditions: 5 days' compound exposure; for IC50: Homo sapiens, MCF7, 120 h
In short: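 MCF-7 cells, 320 per well in RPMI with 10% FBS and 20 mM HEPES, adhered overnight, then exposed 5 days to an eleven-point semilog dilution (final 0.3-0.000003 μM). CellTiter-Glo luminescence read; % viability = (sample − cell-free background)/(untreated − background) × 100.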

ER-α in MCF-7 cells = molecular target: T1, ER-α in MCF-7 cells (Homo sapiens, UniProt P03372); test: Breast cancer cell ER-α in cell western assay (SP1); assay type: cell-based; design: endogenous in cells; host or cells: MCF-7; conditions: 4 or 24 hr post compound addition; for Emax: MCF7, SP1 antibody, read-out: ER-α In Cell Western Assay (SP1) Max Response; for DC50: SP1 antibody, read-out: ER-α In Cell Western Assay (SP1) IC50
T1 sequence (P03372 1-595): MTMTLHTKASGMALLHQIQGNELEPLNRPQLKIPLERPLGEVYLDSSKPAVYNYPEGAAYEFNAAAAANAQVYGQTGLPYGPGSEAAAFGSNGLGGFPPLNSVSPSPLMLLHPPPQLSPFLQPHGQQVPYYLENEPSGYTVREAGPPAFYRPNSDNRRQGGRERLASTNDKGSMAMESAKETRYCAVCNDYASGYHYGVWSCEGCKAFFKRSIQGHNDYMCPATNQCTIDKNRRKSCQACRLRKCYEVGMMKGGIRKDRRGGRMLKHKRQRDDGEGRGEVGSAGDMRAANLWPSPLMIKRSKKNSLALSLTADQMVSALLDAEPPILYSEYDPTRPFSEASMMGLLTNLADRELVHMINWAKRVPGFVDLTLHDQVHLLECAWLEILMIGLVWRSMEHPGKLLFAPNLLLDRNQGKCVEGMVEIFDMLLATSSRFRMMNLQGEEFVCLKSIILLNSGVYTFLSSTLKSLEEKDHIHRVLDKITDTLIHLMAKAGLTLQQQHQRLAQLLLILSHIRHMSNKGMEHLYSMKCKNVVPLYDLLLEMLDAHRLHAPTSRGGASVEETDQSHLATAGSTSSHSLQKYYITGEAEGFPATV
In short: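 Percent remaining ER: SP1 immunofluorescence normalized to DRAQ5 nuclear stain, compared with untreated controls. Treatment lasted 4 or 24 hr across 0.3–0.000003 μM final in MCF-7.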

Row | SMILES | IC50 (MCF-7 cells) | Emax (ER-α in MCF-7 cells) | DC50 (ER-α in MCF-7 cells) | MCF7 Viability Assay Max Response (MCF-7 cells)
1 | CC/C(=C(/c1ccc(/C=C/C(=O)O)cc1)c1ccc(O)nc1)c1ccccc1 [Compound 152, (E)-3-(4-((E)-1-(6-Hydroxypyridin-3-yl)-2-phenylbut-1-en-1-yl)phenyl)acrylic acid] | > 100 nM | ≥ 40% | – | + (+ = a single % value < 40%)
2 | CC/C(=C(/c1ccc(/C=C/C(=O)O)cc1)c1ccc2scnc2c1)c1cccc(Oc2ccccc2)c1 [Compound 299, (E)-3-(4-((E)-1-(Benzo[d]thiazol-5-yl)-2-(3-phenoxyphenyl)but-1-en-1-yl)phenyl)acrylic acid] | > 100 nM | ≥ 40% | ≤ 100 nM | ++ (++ = a single % value ≧ 40%)
3 | CC/C(=C(/c1ccc(/C=C/C(=O)O)cc1)c1ccc2c(cnn2-c2ccccc2)c1)c1ccccc1 [Compound 143, (E)-3-(4-((E)-2-Phenyl-1-(1-phenyl-1H-indazol-5-yl)but-1-en-1-yl)phenyl)acrylic acid] | > 100 nM | ≥ 40% | > 100 nM | ++ (++ = a single % value ≧ 40%)
4 | CC/C(=C(/c1ccc(/C=C/C(=O)O)cc1)c1ccc2nccn2c1)c1ccc(Cl)cc1Cl [Compound 232, (E)-3-(4-((E)-2-(2,4-Dichlorophenyl)-1-(imidazo[1,2-a]pyridin-6-yl)but-1-en-1-yl)phenyl)acrylic acid] | ≤ 100 nM | ≥ 40% | ≤ 100 nM | ++ (++ = a single % value ≧ 40%)
5 | CC/C(=C(/c1ccc(/C=C/C(=O)O)cc1)c1ccc2[nH]ncc2c1)c1ccc(C)c(Oc2ccccc2)c1 [Compound 318, (E)-3-(4-((E)-1-(1H-Indazol-5-yl)-2-(4-methyl-3-phenoxyphenyl)but-1-en-1-yl)phenyl)acrylic acid] | > 100 nM | ≥ 40% | ≤ 100 nM | ++ (++ = a single % value ≧ 40%)
6 | CC/C(=C(/c1ccc(/C=C/C(=O)O)cc1)c1ccc2[nH]ncc2c1)c1ccnc(OC)c1 [Compound 236, (E)-3-(4-((E)-1-(1H-Indazol-5-yl)-2-(2-methoxypyridin-4-yl)but-1-en-1-yl)phenyl)acrylic acid] | ≤ 100 nM | ≥ 40% | ≤ 100 nM | ++ (++ = a single % value ≧ 40%)
7 | CC/C(=C(/c1ccc(/C=C/C(=O)O)cc1)c1coc2c(OC)cccc12)c1ccc(F)cc1Cl [Compound 164, (E)-3-(4-((E)-2-(2-Chloro-4-fluorophenyl)-1-(7-methoxybenzofuran-3-yl)but-1-en-1-yl)phenyl)acrylic acid] | ≤ 100 nM | ≥ 40% | ≤ 100 nM | ++ (++ = a single % value ≧ 40%)
8 | CC/C(=C(/c1ccc(/C=C/C(=O)O)cc1)c1ccc2[nH]ncc2c1)c1ccc(Cc2ccccc2)cc1 [Compound 317, (E)-3-(4-((E)-2-(4-Benzylphenyl)-1-(1H-indazol-5-yl)but-1-en-1-yl)phenyl)acrylic acid] | ≤ 100 nM | ≥ 40% | ≤ 100 nM | ++ (++ = a single % value ≧ 40%)
9 | CC/C(=C(/c1ccc(/C=C/C(=O)O)cc1)c1cnc2[nH]ncc2c1)c1ccccc1 [Compound 67, (E)-3-(4-((E)-2-Phenyl-1-(1H-pyrazolo[3,4-b]pyridin-5-yl)but-1-en-1-yl)phenyl)acrylic acid] | > 100 nM | ≥ 40% | > 100 nM | ++ (++ = a single % value ≧ 40%)
10 | CC/C(=C(/c1ccc(/C=C/C(=O)O)cc1)c1ccc2c(c1)CCC(=O)N2)c1ccccc1 [Compound 100, (E)-3-(4-((E)-1-(2-Oxo-1,2,3,4-tetrahydroquinolin-6-yl)-2-phenylbut-1-en-1-yl)phenyl)acrylic acid] | > 100 nM | ≥ 40% | > 100 nM | ++ (++ = a single % value ≧ 40%)
11 | CC/C(=C(/c1ccc(/C=C/C(=O)O)cc1)c1ccc2[nH]ncc2c1)c1ccc2sccc2c1 [Compound 272, (E)-3-(4-((E)-2-(Benzo[b]thiophen-5-yl)-1-(1H-indazol-5-yl)but-1-en-1-yl)phenyl)acrylic acid] | ≤ 100 nM | ≥ 40% | ≤ 100 nM | ++ (++ = a single % value ≧ 40%)

Further lines, with some results ahead:

Row | IC50 (MCF-7 cells) | Emax (ER-α in MCF-7 cells) | DC50 (ER-α in MCF-7 cells) | SMILES | MCF7 Viability Assay Max Response (MCF-7 cells)
12 | ≤ 100 nM | ≥ 40% | ≤ 100 nM | CC/C(=C(/c1ccc(/C=C/C(=O)NS(=O)(=O)c2ccncc2)cc1)c1ccc2[nH]ncc2c1)c1ccc(F)cc1Cl [Compound 434, (E)-3-(4-((E)-2-(2-Chloro-4-fluorophenyl)-1-(1H-indazol-5-yl)but-1-en-1-yl)phenyl)-N-(pyridin-4-ylsulfonyl)acrylamide] | ++ (++ = a single % value ≧ 40%)
13 | > 100 nM | ≥ 40% | > 100 nM | CCCCCCOc1ccc(/C(CC)=C(\c2ccc(/C=C/C(=O)O)cc2)c2ccc3[nH]ncc3c2)cc1 [Compound 357, (E)-3-(4-((E)-2-(4-(Hexyloxy)phenyl)-1-(1H-indazol-5-yl)but-1-en-1-yl)phenyl)acrylic acid] | ++ (++ = a single % value ≧ 40%)
14 | > 100 nM | ≥ 40% | ≤ 100 nM | CC/C(=C(/c1ccc(/C=C/C(=O)O)cc1)c1ccc2[nH]ncc2c1)c1ccc(-c2cnsc2)cc1 [Compound 395, (E)-3-(4-((E)-1-(1H-Indazol-5-yl)-2-(4-(isothiazol-4-yl)phenyl)but-1-en-1-yl)phenyl)acrylic acid] | ++ (++ = a single % value ≧ 40%)
15 | ≤ 100 nM | ≥ 40% | ≤ 100 nM | CC/C(=C(/c1ccc(/C=C/C(=O)O)cc1)c1ccc2[nH]ncc2c1)c1cccc(Oc2cnccn2)c1 [Compound 371, (E)-3-(4-((E)-1-(1H-Indazol-5-yl)-2-(3-(pyrazin-2-yloxy)phenyl)but-1-en-1-yl)phenyl)acrylic acid] | ++ (++ = a single % value ≧ 40%)
16 | > 100 nM | < 40% | > 100 nM | CC/C(=C(/c1ccc(/C=C/C(=O)O)cc1)c1ccc2[nH]ncc2c1)c1ccc(OCC(=O)O)cc1 [Compound 348, (E)-3-(4-((E)-2-(4-(Carboxymethoxy)phenyl)-1-(1H-indazol-5-yl)but-1-en-1-yl)phenyl)acrylic acid] | + (+ = a single % value < 40%)
17 | ≤ 100 nM | ≥ 40% | ≤ 100 nM | Cc1cscc1/C(=C(\c1ccc(/C=C/c2nn[nH]n2)cc1)c1ccc2scnc2c1)C1CCC1 [Compound 448, 5-((E)-1-(4-((E)-2-(2H-Tetrazol-5-yl)vinyl)phenyl)-2-cyclobutyl-2-(4-methylthiophen-3-yl)vinyl)benzo[d]thiazole] | ++ (++ = a single % value ≧ 40%)
18 | > 100 nM | ≥ 40% | > 100 nM | CC/C(=C(/c1ccc(OC2(C(=O)O)CC2)cc1)c1ccc2[nH]ncc2c1)c1ccc(F)cc1Cl [Compound 332, (E)-1-(4-(2-(2-Chloro-4-fluorophenyl)-1-(1H-indazol-5-yl)but-1-en-1-yl)phenoxy)cyclopropanecarboxylic acid] | ++ (++ = a single % value ≧ 40%)
